According to PMC5114558, “Reader domain specificity and lysine demethylase-4 family function” (Nature Communications, 2016):
Residue numbers refer to the chain shown, from its start. Where two headings read alike, the source gives them in different places. One block for each molecule: values may come before it. Non-standard residues stand in square brackets, D forms with d. Residues, ends and D or L forms follow the SMILES beside them. *: point of attachment. 5FAM = O=C1OC2(c3ccc(O)cc3Oc3cc(O)ccc32)c2ccc(C(=O)*)cc21; Lys(Me3) = C[N+](C)(C)CCCC[C@H](N)C(=O)O

Columns and labels:
[1] = test system: KDM4B full-length protein; test: MS-based demethylation assay, full-length KDM4B; assay type: biochemical, human; settings: 0.2 μM enzyme, 5–10 μM peptide, pH 7.5, 25 °C, MS read-out; single peptide substrates; Fig. 6a,b
Experimental: In a typical demethylase reaction, the assay mixture containing 50 mM Tris pH 7.5, 50 mM NaCl, 50 μM (NH4)2Fe(SO4)2, 0.5 mM ascorbic acid, 1 mM α-ketoglutarate and 0.2 μM full-length KDM4A–C (Active Motif) was mixed with 5–10 μM of trimethylated histone peptides (detailed sequence information in Supplementary Table 1). Each peptide concentration was quantified by measuring Abs280nm for peptides containing either tryptophan or tyrosine residue. After incubation of assay mixture at 25 °C for 10, 30 and 60 min time point, 10 μl of aliquot was transferred to a clean tube containing 5 μl of 5% formic acid to quench the reaction. Each quenched sample was treated with standard StageTip protocol using C18 extraction disk (Model 2215, Empore, 3 M) to remove excess salts and detergents in the reaction mixture. Each eluate from StageTip containing peptides was dried at a reduced pressure (vacuum centrifuge) and was re-suspended with 10 μl of 5% acetonitrile solution (0.1% formic acid). The 1 μl of the sample was injected at 0.7 μl min^−1 flow rate onto a Dionex Ultimate 3000 Nano LC system equipped with Atlantis dC18 NanoEase reverse-phase column (3 μm, 100 μm × 150 mm, Waters) and coupled to a hybrid quadrupole-orbitrap MS (Q-Exactive, Thermo Scientific). The peptide was eluted at 4–15 min retention time with a linear gradient of 2–35% acetonitrile (0.1% formic acid). All the solvents used for liquid chromatography MS were HPLC grade (Fisher). For each analysis, MS1 scan range of 300–1,100 m/z was used and data-dependent MS/MS was obtained to identify the site of demethylation. Each peptide peak and its area integration was performed on the XCalibur Qual Browser.

H3K23me3 antibody = H3K23me3 antibody profiling on histone peptide microarray; settings: scale from zero (no binding) to one (highest binding), Supplementary Fig. 5b-c
Experimental: Peptide arrays were handled with care and protected from light. All solutions were filtered before putting on the array. Assays were performed with a modified two-chamber simplex gasket (Intuitive Bioscience). After tightening the gasket onto the slide surface, the peptide array was blocked with blocking solution (1 × PBS, 0.05% Tween-20 pH 7.4, 1% BSA) at 4 °C overnight, to reduce nonspecific binding. (1) Reader binding: 10–50 nM purified recombinant HT-KDM4 DTDs were first reacted with excessive HaloTag ligand-biotin (Promega) in blocking solution on ice for 15 min and incubated on peptide array under mild rocking at 4 °C, 1 h. The slide was washed with PBS with 0.05% Tween (PBST) three times and incubated with 1:2,000 streptavidin-conjugated Alexa-Fluor647 (Invitrogen) in blocking solution at room temperature for 1 h. (2) Antibody binding: after blocking, 1:2,500–1:100 dilution H3K23me3 antibody in blocking solution were incubated with peptide microarray under mild rocking at 4 °C, 1 h. The slide was washed with PBST three times and incubated with 1:1,000 anti-rabbit IgG Alexa 647 (Cell Signaling) in blocking solution at room temperature for 1 h. […] Signal intensities were quantified by GenePix Pro 6.1 software (Molecular Devices). […] For each peptide species, an average was calculated from three replicate spots. […]

[2] = biological target: T1, KDM4A DTD (human KDM4A double tudor domain, 895–1011aa) (Homo sapiens, UniProt O75164); test: fluorescence polarization (FP) binding, KDM4A-DTD wild-type
T1 construct: DNA encoding DTDs (KDM4A 895–1011aa, KDM4B 917–1031aa and KDM4C 877–991aa); (His)6-HaloTag (pFN29) or (His)6 (pET28b); made in house; host or cells: Escherichia coli BL21 (DE3)
T1 sequence (O75164 895-1011): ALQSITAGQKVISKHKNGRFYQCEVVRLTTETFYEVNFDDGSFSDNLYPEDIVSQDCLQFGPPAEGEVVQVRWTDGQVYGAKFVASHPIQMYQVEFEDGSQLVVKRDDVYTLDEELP
Text: (§1) KDM4 protein sequences used in this study correspond to Uniprot ID: O75164 (human KDM4A, isoform 1), O94953 (human KDM4B, isoform1) and Q9H3R0 (human KDM4C, isoform1). Plasmid encoding KDM4A DTD was kindly provided by R-M Xu (Chinese Academy of Sciences). Complementary DNA encoding human KDM4B-DTD was synthesized (Integrated DNA Technologies). Plasmid containing cDNA of full-length KDM4C (clone ID: HsCD00341594) was obtained from Harvard Plasmid Repository. DNA encoding DTDs (KDM4A 895–1011aa, KDM4B 917–1031aa and KDM4C 877–991aa) were cloned into pFN29 (Promega) with N-terminal (His)6-HaloTag or pET28b with N-terminal (His)6 Tag using In-Fusion HD cloning kit (Clontech). Plasmids encoding Xenopus laevis core histones were a generous gift of K. Luger (University of Colorado-Boulder). Site-directed mutagenesis was performed with Q5 Site-Directed Mutagenesis Kit (New England Biolabs).
(§2) Peptide sequences are given in Supplementary Table 1. […] A no-protein control with only peptide probe was included. Polarization at each concentration was measured as triplicates in 384-well polystyrene black microplates (Thermo Fisher Scientific 262260) by Biotek Synergy H4 multimode plate reader (light source: xenon flash, offset from top: 7 mm, sensitivity: 60%, excitation: 485/20 nm, emission: 528/20 nm, both parallel and perpendicular, normal read speed). Fraction bound (Fb) at each concentration was calculated based on the corresponding polarization values (P): Fbc=(Pc−Pmin)/(Pmax−Pmin), where Pmin is the polarization value of no-protein control and Pmax is the polarization value of the saturation value for that peptide. Dissociation constants (Kd) were derived by KaleidaGraph, Synergy Software (version 4.1.3) using the following equation: Fb=[protein]/([protein]+Kd).

[3] = biological target: T2, KDM4C DTD (human KDM4C double tudor domain, 877–991aa) (Homo sapiens, UniProt Q9H3R0); test: fluorescence polarization (FP) binding, KDM4C-DTD wild-type; settings: matrix Fig. 1d, pH 7.4, read-out: binding affinity (Kd), KDM4C DTD
T2 construct: DNA encoding DTDs (KDM4A 895–1011aa, KDM4B 917–1031aa and KDM4C 877–991aa); (His)6-HaloTag (pFN29) or (His)6 (pET28b); made in house; host or cells: Escherichia coli BL21 (DE3)
T2 sequence (Q9H3R0 877-991): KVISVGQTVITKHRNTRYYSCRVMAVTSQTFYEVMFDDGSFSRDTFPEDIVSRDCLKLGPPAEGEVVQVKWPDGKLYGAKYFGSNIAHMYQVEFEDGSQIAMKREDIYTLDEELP
Text: as §1, with “Plasmids encoding Xenopus laevis core histones were a generous gift of K. Luger (University of Colorado-Boulder). Site-directed mutagenesis was performed with Q5 Site-Directed Mutagenesis Kit (New England Biolabs).” left out
(§3) Peptide sequences are given in Supplementary Table 1. […] Polarization at each concentration was measured as triplicates in 384-well polystyrene black microplates (Thermo Fisher Scientific 262260) by Biotek Synergy H4 multimode plate reader (light source: xenon flash, offset from top: 7 mm, sensitivity: 60%, excitation: 485/20 nm, emission: 528/20 nm, both parallel and perpendicular, normal read speed). Fraction bound (Fb) at each concentration was calculated based on the corresponding polarization values (P): Fbc=(Pc−Pmin)/(Pmax−Pmin), where Pmin is the polarization value of no-protein control and Pmax is the polarization value of the saturation value for that peptide. […]

[4] = biological target: T3, KDM4A-DTD triple mutant N931D/D939R/D945R (DRR) (Homo sapiens, UniProt O75164, D939R/D945R/N931D); test: FP binding, KDM4A-DTD DRR mutant; settings: matrix Fig. 3c, values given in mM, pH 7.4, read-out: binding affinity (Kd), DRR mutant
T3 construct: DNA encoding DTDs (KDM4A 895–1011aa, KDM4B 917–1031aa and KDM4C 877–991aa); (His)6-HaloTag (pFN29) or (His)6 (pET28b); made in house; host or cells: Escherichia coli BL21 (DE3)
T3 sequence (O75164 895-1011 N931D/D939R/D945R): T1 sequence (O75164 895-1011) with N37D, D45R, D51R
Text: as §1, with “Plasmids encoding Xenopus laevis core histones were a generous gift of K. Luger (University of Colorado-Boulder). Site-directed mutagenesis was performed with Q5 Site-Directed Mutagenesis Kit (New England Biolabs).” left out
as §3

[5] = biological target: T4, KDM4B DTD (human KDM4B double tudor domain, 917–1031aa) (Homo sapiens, UniProt O94953); test: fluorescence polarization (FP) binding, KDM4B-DTD wild-type; settings: matrix Fig. 1d, pH 7.4, read-out: binding affinity (Kd), KDM4B DTD
T4 construct: DNA encoding DTDs (KDM4A 895–1011aa, KDM4B 917–1031aa and KDM4C 877–991aa); (His)6-HaloTag (pFN29) or (His)6 (pET28b); made in house; host or cells: Escherichia coli BL21 (DE3)
T4 sequence (O94953 917-1031): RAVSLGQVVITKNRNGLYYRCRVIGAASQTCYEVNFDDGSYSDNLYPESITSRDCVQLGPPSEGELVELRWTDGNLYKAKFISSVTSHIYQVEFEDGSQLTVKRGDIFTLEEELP
Text: as §1, §2

KDM4B-DTD = test: biotinylated histone peptide pull-down, KDM4B-DTD; assay type: binding, human; settings: compared with KDM4A and KDM4C DTDs
[6] = Fig. 2e,g,i,j and Fig. 4g,i, pH 7.4, ± s.d. from three experimental replicates, read-out: binding affinity, KDM4A-DTD wild-type (WT)
[7] = matrix Fig. 1d and Fig. 3c, pH 7.4, read-out: binding affinity (Kd), KDM4A DTD wild-type

Molecule: RKQLATKAARK(Me3)SAPATGGW [H3K27me3 peptide, demethylation assay peptide, Peptide 2.0]
demethylation by full-length KDM4B [1]: did not detect significant demethylation

Molecule: H3K36me3: demethylation assay peptide, Tufts University Core Facility
demethylation by full-length KDM4B [1]: consistent H3K36me3 demethylation | relative signal intensity with H3K23me3 antibody (H3K23me3 antibody): less than 0.1

Kd [2, 6]: 83.7 ± 4.1 µM
Molecule: CC(C)C[C@H](NC(=O)[C@H](CCC(N)=O)NC(=O)[C@H](CCCCN)NC(=O)[C@H](CCCNC(=N)N)NC(=O)c1ccc2c(c1)C(=O)OC21c2ccc(O)cc2Oc2cc(O)ccc21)C(=O)N[C@@H](C)C(=O)N[C@H](C(=O)N[C@@H](CCCC[N+](C)(C)C)C(=O)N[C@@H](C)C(=O)N[C@@H](C)C(=O)N[C@@H](CCCNC(=N)N)C(=O)N[C@@H](CCCCN)C(=O)N[C@@H](CO)C(=O)N[C@@H](C)C(=O)N1CCC[C@H]1C(=O)N[C@@H](C)C(=O)N[C@H](C(=O)O)[C@@H](C)O)[C@@H](C)OP(=O)(O)O [H3T22phK23me3]

Kd [2, 6]: 32.3 ± 1.8 µM
Molecule: CC(C)C[C@H](NC(=O)[C@H](CCC(N)=O)NC(=O)[C@H](CCCCN)NC(=O)[C@H](CCCNC(=N)N)NC(=O)c1ccc2c(c1)C(=O)OC21c2ccc(O)cc2Oc2cc(O)ccc21)C(=O)N[C@@H](C)C(=O)N[C@H](C(=O)N[C@@H](CCCC[N+](C)(C)C)C(=O)N[C@@H](C)C(=O)N[C@@H](C)C(=O)N[C@@H](C)C(=O)N[C@@H](CCCCN)C(=O)N[C@@H](CO)C(=O)N[C@@H](C)C(=O)N1CCC[C@H]1C(=O)N[C@@H](C)C(=O)N[C@H](C(=O)O)[C@@H](C)O)[C@@H](C)O [H3K23me3R26A] (5FAM-RKQLAT[Lys(Me3)]AAAKSAPAT-OH)

Kd ([2]; pH 7.4, read-out: Kd, KDM4A-DTD wild-type): 9.06 µM
Molecule: CC(C)C[C@H](NC(=O)[C@H](CCC(N)=O)NC(=O)[C@H](CCCCN)NC(=O)[C@H](CCCNC(=N)N)NC(=O)c1ccc2c(c1)C(=O)OC21c2ccc(O)cc2Oc2cc(O)ccc21)C(=O)N[C@@H](C)C(=O)N[C@H](C(=O)N[C@@H](CCCCN(C)C)C(=O)N[C@@H](C)C(=O)N[C@@H](C)C(=O)N[C@@H](CCCNC(=N)N)C(=O)N[C@@H](CCCCN)C(=O)N[C@@H](CO)C(=O)N[C@@H](C)C(=O)N1CCC[C@H]1C(=O)N[C@@H](C)C(=O)N[C@H](C(=O)O)[C@@H](C)O)[C@@H](C)O [H3K23me2]

Kd [2, 6]: 98.6 ± 5.4 µM
Molecule: CNCCCC[C@H](NC(=O)[C@@H](NC(=O)[C@H](C)NC(=O)[C@H](CC(C)C)NC(=O)[C@H](CCC(N)=O)NC(=O)[C@H](CCCCN)NC(=O)[C@H](CCCNC(=N)N)NC(=O)c1ccc2c(c1)C(=O)OC21c2ccc(O)cc2Oc2cc(O)ccc21)[C@@H](C)O)C(=O)N[C@@H](C)C(=O)N[C@@H](C)C(=O)N[C@@H](CCCNC(=N)N)C(=O)N[C@@H](CCCCN)C(=O)N[C@@H](CO)C(=O)N[C@@H](C)C(=O)N1CCC[C@H]1C(=O)N[C@@H](C)C(=O)N[C@H](C(=O)O)[C@@H](C)O [H3K23me1]

Kd [2, 7]: 109 µM
Molecule: CC(C)C[C@H](NC(=O)[C@H](CCC(N)=O)NC(=O)[C@H](CCCCN)NC(=O)[C@H](CCCNC(=N)N)NC(=O)[C@@H]1CCCN1C(=O)[C@H](C)NC(=O)[C@H](CCCC[N+](C)(C)C)NC(=O)CNC(=O)CNC(=O)[C@@H](NC(=O)[C@H](CO)NC(=O)[C@H](CCCCN)NC(=O)[C@H](CCCNC(=N)N)NC(=O)[C@H](C)NC(=O)c1ccc2c(c1)C(=O)OC21c2ccc(O)cc2Oc2cc(O)ccc21)[C@@H](C)O)C(=O)N[C@@H](C)C(=O)N[C@H](C(=O)N[C@@H](CCCCN)C(=O)O)[C@@H](C)O [H3K14me3] (5FAM-ARKSTGG[Lys(Me3)]APRKQLATK-OH)

Molecule: RKQLATK(Me3)AARK(Me3)SAPATGGW [H3K23me3K27me3, demethylation assay peptide, Peptide 2.0]
demethylation by full-length KDM4B [1]: lack of measurable demethylation

Kd [3]: 103 µM | Kd [4]: 0.57 mM | Kd [5]: 140 µM | Kd [2, 7]: 122 µM
Molecule: CC(C)C[C@H](NC(=O)[C@H](CCC(N)=O)NC(=O)[C@H](CCCCN)NC(=O)[C@H](CCCNC(=N)N)NC(=O)c1ccc2c(c1)C(=O)OC21c2ccc(O)cc2Oc2cc(O)ccc21)C(=O)N[C@@H](C)C(=O)N[C@H](C(=O)N[C@@H](CCCCN)C(=O)N[C@@H](C)C(=O)N[C@@H](C)C(=O)N[C@@H](CCCNC(=N)N)C(=O)N[C@@H](CCCC[N+](C)(C)C)C(=O)N[C@@H](CO)C(=O)N[C@@H](C)C(=O)N1CCC[C@H]1C(=O)N[C@@H](C)C(=O)N[C@H](C(=O)O)[C@@H](C)O)[C@@H](C)O [H3K27me3]

pull-down binding of KDM4B-DTD (KDM4B-DTD): Decreased
Molecule: ARTK(Me3)QTARKSTE(PEGbiotin)W [H3K4me3 (biotinylated), H3K4me3 peptide for pull-down, PEGbiotin, in-house]
